Some results are limits rather than exact numbers.

Assay [1] relates to TMD8 cells. As to the kind of experiment: Resazurin cell viability (proliferation) assay in TMD8 DLBCL cells. The conditions noted are these: Homo sapiens, TMD8 cells (BTK dependent), 72 h, 50% growth inhibition vs vehicle, read-out: TMD8 Prol GI50. In kind it is cell-based. The gist of the method:
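TMD8 cells were seeded at 1×10^4 per well and treated 3 h later with compound, in an 8-point 1:4 dilution series starting at 1 μM, or DMSO, for 72 h at 37° C. Resazurin was added at 13 μg/ml final for the last 2 h, and fluorescence was read at ex 530/em 600 nm. GI50 versus vehicle was derived by curve fitting from triplicates.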
A general note: Alamar Blue is a resazurin reagent that responds to reducing activity.

The subject of assay [2] is OCI-LY3 cells. Nature of the assay: Resazurin cell viability (proliferation) assay in OCI-LY3 DLBCL cells. It counts as cell-based. The following applies: Homo sapiens, OCI-LY3 cells (BTK independent), 72 h, 50% growth inhibition vs vehicle, read-out: OCI-LY3 Prol GI50. A digest of the protocol:
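Cells were seeded at 1×10^4 per well and dosed 3 h later: 8-point 1:4 dilutions from 10 μM (OCI-LY3), in triplicate, 72 h at 37 °C. Resazurin (13 μg/ml final) was added for the last 2 h and fluorescence read at 530/600 nm. GI50 is relative to DMSO vehicle, typically from ≥2 independent experiments.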

Consider `COc1ccc(C(=O)N2CCC3(CCN(Cc4ccc(-c5cc6c(-c7cc(F)cc(NC(=O)c8ccc(C(C)(C)O)cc8F)c7C)ncnc6[nH]5)cc4)CC3)CC2)cc1N1CCC(=O)NC1=O` [Compound 9, N-(3-(6-(4-((9-(3-(2,4-Dioxotetrahydropyrimidin-1(2H)-yl)-4-methoxybenzoyl)-3,9-diazaspiro[5.5]undecan-3-yl)methyl)phenyl)-7H-pyrrolo[2.3-d]pyrimidin-4-yl)-5-fluoro-2-methylphenyl)-2-fluoro-4-(2-hydroxypropan-2-yl)benzamide], for which the GI50 in assay [1] worked out at 0.52 nM; in assay [2], 3870 nM.

With `Cc1ccc(C(=O)N(C)CCCCCNCc2ccc(-c3cc4c(-c5cc(F)cc(NC(=O)c6ccc(C(C)(C)O)cc6F)c5C)ncnc4[nH]3)cc2)cc1N1CCC(=O)NC1=O` [Compound 30, 3-(2,4-Dioxotetrahydropyrimidin-1(2H)-yl)-N-(5-((4-(4-(5-fluoro-3-(2-fluoro-4-(2-hydroxypropan-2-yl)benzamido)-2-methylphenyl)-7H-pyrrolo[2,3-d]pyrimidin-6-yl)benzyl)amino)pentyl)-N,4-dimethylbenzamide], the GI50 is 5.2 nM in assay [1] and above 10000 nM in assay [2].

For the compound `COc1ccc(C(=O)N2CCN(CCCCNCc3ccc(-c4cc5c(-c6cc(F)cc(NC(=O)c7ccc(C(C)(C)O)cc7F)c6C)ncnc5[nH]4)cc3)CC2)cc1N1CCC(=O)NC1=O` [Compound 40, N-(3-(6-(4-(((4-(4-(3-(2,4-dioxotetrahydropyrimidin-1(2H)-yl)-4-methoxybenzoyl)piperazin-1-yl)butyl)amino)methyl)phenyl)-7H-pyrrolo[2,3-d]pyrimidin-4-yl)-5-fluoro-2-methylphenyl)-2-fluoro-4-(2-hydroxypropan-2-yl)benzamide], the GI50 in assay [1] was 3.43 nM; in assay [2] it was above 10000 nM.

Regarding `CCOc1ccc(C(=O)N2CCC3(CCN(Cc4ccc(-c5cc6c(-c7cc(F)cc(NC(=O)c8ccc(C(C)(C)O)cc8F)c7C)ncnc6[nH]5)cc4)CC3)CC2)cc1N1CCC(=O)NC1=O` [Compound 4, N-(3-(6-(4-((9-(3-(2,4-Dioxotetrahydropyrimidin-1(2H)-yl)-4-ethoxybenzoyl)-3,9-diazaspiro[5.5]undecan-3-yl)methyl)phenyl)-7H-pyrrolo[2,3-d]pyrimidin-4-yl)-5-fluoro-2-methylphenyl)-2-fluoro-4-(2-hydroxypropan-2-yl)benzamide], the GI50 in assay [1] is 1.84 nM; in assay [2], 4680 nM.

Usually GI50 stands for the concentration that inhibits growth by half.

These data come from patent US12441733B2, “Substituted 2,4-dioxotetrahydropyrimidines as intermediates in the synthesis of bruton's tyrosine kinase inhibitors” (Novartis AG, priority 2018, dated 2025).
